The source of these data is ChEMBL document CHEMBL1138891, “3-(4-Piperidinyl)indoles and 3-(4-piperidinyl)pyrrolo-[2,3-b]pyridines as ligands for the ORL-1 receptor” (Bioorg Med Chem Lett, 2006).

A short description of series [1]: Half life in human liver microsomes. The format is ADME, Microsome.
Series [2] in a line: Stability in human liver microsome after 60 mins. The format is ADME. The settings on record: liver microsomes, read-out: Stability.

Structures are written as SMILES.

In series [1], `c1cc2c3c(cccc3c1)C(N1CCC(c3c[nH]c4ncccc34)CC1)C2` (configuration not stated) showed a half-life of 15 min. The remaining at 1 h in series [2] is 14%.

What is called half-life is the time needed for the level to fall by half in the phase considered. Low readings indicate fast loss, high ones slow loss.
